Like-named read-outs stand apart in the source and are kept apart here. Values belong to the molecule of their own block, whether it stands above or below them.
Tests used:
[1] = test system: CCRF-CEM cells that express endogenous human CXCR4; settings: read-out: IC50 to block SDF-1α-induced CEM migration, 10 nM SDF-1, 2.5 h
hCXCR4 = hCXCR4 (Homo sapiens, UniProt P61073); test: Radioligand [125I]SDF-1α binding to hCXCR4-transfected HEK293 membrane
HIV-1 = settings: 0 to 20 nM
CXCR7 = CXCR7 (Homo sapiens, UniProt P25106); assay type: cell-based
CCR5 = CCR5 (Homo sapiens, UniProt P51681); test: CCR5 radioligand binding assay; settings: for selective index CCR5: selectivity for CXCR4 binding versus CCR5
TZM-bl cells = test: Cytotoxicity assay; assay type: cell-based
HIV-1 IIIB = test: Luciferase activity assay of HIV-1 infectivity in TZM-bl cells; assay type: cell-based; settings: read-out: Anti-HIV EC50; TZM-bl cells, HIV-1 IIIB, M.O.I. 1
CCR4 = target: T1, CCR4 (Homo sapiens, UniProt P51679); test: CCR4 radioligand binding assay; settings: for selective index CCR4: selectivity for CXCR4 binding versus CCR4
T1 sequence (P51679 1-360): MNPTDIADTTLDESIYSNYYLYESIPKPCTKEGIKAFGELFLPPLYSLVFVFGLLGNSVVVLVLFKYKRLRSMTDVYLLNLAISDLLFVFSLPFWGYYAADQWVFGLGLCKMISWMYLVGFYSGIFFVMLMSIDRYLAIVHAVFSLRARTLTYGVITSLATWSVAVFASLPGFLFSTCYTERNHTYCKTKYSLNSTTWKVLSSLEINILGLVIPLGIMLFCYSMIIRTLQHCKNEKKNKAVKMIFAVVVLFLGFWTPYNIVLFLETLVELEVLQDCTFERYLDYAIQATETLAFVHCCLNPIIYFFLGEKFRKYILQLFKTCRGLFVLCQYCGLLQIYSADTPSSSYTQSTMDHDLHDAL

CCR2 = CCR2 (Homo sapiens, UniProt P41597); test: CCR2 radioligand binding assay; settings: for selective index CCR2: selectivity for CXCR4 binding versus CCR2
CXCR2 = target: T2, CXCR2 (Homo sapiens, UniProt P25025); test: CXCR2 radioligand binding assay; settings: for selective index CXCR2: selectivity for CXCR4 binding versus CXCR2
T2 sequence (P25025 1-360): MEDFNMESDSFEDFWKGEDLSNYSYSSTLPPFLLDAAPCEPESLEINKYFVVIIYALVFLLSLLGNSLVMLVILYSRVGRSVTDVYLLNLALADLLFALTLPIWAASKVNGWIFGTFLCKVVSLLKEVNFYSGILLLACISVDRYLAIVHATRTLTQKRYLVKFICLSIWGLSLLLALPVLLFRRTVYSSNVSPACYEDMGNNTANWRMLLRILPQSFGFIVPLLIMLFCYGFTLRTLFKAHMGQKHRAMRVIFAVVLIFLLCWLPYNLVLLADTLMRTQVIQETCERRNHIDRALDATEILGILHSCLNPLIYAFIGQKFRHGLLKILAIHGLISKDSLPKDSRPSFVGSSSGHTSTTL

CEM cells = test: Cytotoxicity assay; assay type: cell-based, human
Cytotoxicity assay [2] = assay type: cell-based; settings: human, TZM-bl cells
Cytotoxicity assay [3] = assay type: cell-based, human; settings: human, CEM cells (T-lymphoblast leukemia)

CCR5, sequence (P51681 whole entry, species assumed): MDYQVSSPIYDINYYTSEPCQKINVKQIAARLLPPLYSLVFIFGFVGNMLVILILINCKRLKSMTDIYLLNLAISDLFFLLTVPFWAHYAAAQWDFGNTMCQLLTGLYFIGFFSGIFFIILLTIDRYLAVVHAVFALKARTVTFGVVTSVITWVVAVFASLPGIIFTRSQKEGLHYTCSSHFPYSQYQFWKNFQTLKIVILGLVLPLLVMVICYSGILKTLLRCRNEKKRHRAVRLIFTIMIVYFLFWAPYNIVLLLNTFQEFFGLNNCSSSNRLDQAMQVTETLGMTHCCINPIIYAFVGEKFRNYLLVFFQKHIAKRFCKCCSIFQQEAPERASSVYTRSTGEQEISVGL
hCXCR4, sequence (P61073 whole entry): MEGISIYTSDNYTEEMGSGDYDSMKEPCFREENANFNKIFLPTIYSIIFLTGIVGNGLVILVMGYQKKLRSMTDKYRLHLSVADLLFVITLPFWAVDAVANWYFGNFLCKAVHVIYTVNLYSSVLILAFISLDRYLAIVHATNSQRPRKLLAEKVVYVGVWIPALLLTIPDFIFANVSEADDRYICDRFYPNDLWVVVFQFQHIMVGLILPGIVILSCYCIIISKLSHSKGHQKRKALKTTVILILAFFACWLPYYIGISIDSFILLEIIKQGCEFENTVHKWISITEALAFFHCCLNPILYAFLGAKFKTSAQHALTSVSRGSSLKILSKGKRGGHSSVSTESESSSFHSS
CCR2, sequence (P41597 whole entry, species assumed): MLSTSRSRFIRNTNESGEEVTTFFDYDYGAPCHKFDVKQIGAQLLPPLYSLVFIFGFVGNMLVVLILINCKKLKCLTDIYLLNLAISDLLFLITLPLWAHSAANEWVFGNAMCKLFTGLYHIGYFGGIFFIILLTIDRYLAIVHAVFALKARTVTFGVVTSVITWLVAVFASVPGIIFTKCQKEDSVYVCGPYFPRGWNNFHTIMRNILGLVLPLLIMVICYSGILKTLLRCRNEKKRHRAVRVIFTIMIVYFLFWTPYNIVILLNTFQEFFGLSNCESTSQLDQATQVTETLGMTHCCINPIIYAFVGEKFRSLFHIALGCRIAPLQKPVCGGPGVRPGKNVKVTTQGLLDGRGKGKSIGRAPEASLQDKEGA
CXCR7, sequence (P25106 whole entry): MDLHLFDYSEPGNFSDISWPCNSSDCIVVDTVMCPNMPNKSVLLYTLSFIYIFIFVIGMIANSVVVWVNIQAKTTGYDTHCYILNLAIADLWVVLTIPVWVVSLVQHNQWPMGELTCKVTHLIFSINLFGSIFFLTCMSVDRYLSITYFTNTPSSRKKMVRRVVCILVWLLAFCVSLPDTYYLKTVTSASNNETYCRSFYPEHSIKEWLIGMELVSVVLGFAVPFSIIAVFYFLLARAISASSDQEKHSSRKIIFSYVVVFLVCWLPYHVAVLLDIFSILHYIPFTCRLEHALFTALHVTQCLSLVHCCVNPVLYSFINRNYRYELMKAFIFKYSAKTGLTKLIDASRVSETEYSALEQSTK

Compound: c1nc2c(NCc3ccc(CCNCCCNC4CCCCC4)cc3)nc(N3CCNCC3)nc2[nH]1 [Compound 24, N-Cyclohexyl-N′-(2-{4-[(2-piperazin-1-yl-9H-purin-6-ylami-no)-methyl]-phenyl}-ethyl)-propane-1,3-diamine]
- IC50 [1]: 0.0031 µM
- inhibition (%) CXCR4 (hCXCR4; at 10 μM): 100%
- fold increase in CXCR4 binding affinity compared to AMD3100 (hCXCR4; relative to AMD3100): 13 fold
- fold increase in CXCR4 binding affinity compared to compound 4 (hCXCR4; relative to compound 4): 2.2 fold
- anti-HIV activity, time of addition (HIV-1; added 3 h after HIV-1 infection): significantly reduced
- anti-HIV activity, time of addition (HIV-1; added 3 h before or simultaneously with HIV-1 infection): maintained its potent anti-HIV activity
- functional selectivity over CXCR4-dependent HIV entry inhibition (CXCR7; CXCR7 β-arrestin assay versus HIV entry inhibition): > 1960 fold
- antagonism of SDF-1α binding to CXCR7 or triggering of β-arrestin recruitment (CXCR7; even at a 40-fold higher SDF-1α concentration): did not antagonize
- inhibition (%) CCR5 (CCR5; at 10 μM): 15%
- IC50 (CCR5; read-out: IC50 CCR5): > 10 µM
- selective index CCR5 (CCR5): >609
- Selective Index CC50/EC50 TZM-bl (TZM-bl cells; CC50 (TZM-bl) / anti-HIV EC50): >98039
- CC50 (TZM-bl cells; read-out: Cytotoxicity CC50 TZM-bl, TZM-bl cells, 72 h): > 50 µM
- EC50 (HIV-1 IIIB): 0.00051 ± 2e-05 µM
- inhibition (%) CCR4 (CCR4; at 10 μM): 11%
- IC50 (CCR4; read-out: IC50 CCR4): > 10 µM
- selective index CCR4 (CCR4): >609
- inhibition (%) CCR2 (CCR2; at 10 μM): 10%
- IC50 (CCR2; read-out: IC50 CCR2): > 10 µM
- selective index CCR2 (CCR2): >609
- inhibition (%) CXCR2 (CXCR2; at 10 μM): 16%
- IC50 (CXCR2; read-out: IC50 CXCR2): > 10 µM
- selective index CXCR2 (CXCR2): >609
- Selective Index CC50/EC50 CEM (CEM cells; CC50 (CEM) / anti-HIV EC50): >98039
- CC50 (CEM cells; read-out: Cytotoxicity CC50 CEM, CEM cells, 72 h): > 50 µM

- inhibition at 10 µM (hCXCR4; read-out: inhibition (%) CXCR4): 100%
- fold increase in CXCR4 binding affinity compared to compound 24 (hCXCR4; relative to compound 24): 4 fold
- IC50 (CCR5): > 10 µM
- inhibition at 10 µM (CCR5; read-out: inhibition (%) CCR5): 14%
- selective index CCR5 (CCR5): >2380
- EC50 (HIV-1 IIIB): 0.00061 ± 0.00027 µM
- IC50 (CCR4): > 10 µM
- inhibition at 10 µM (CCR4; read-out: inhibition (%) CCR4): 0%
- selective index CCR4 (CCR4): >2380
- IC50 (CCR2): > 10 µM
- inhibition at 10 µM (CCR2; read-out: inhibition (%) CCR2): 2%
- selective index CCR2 (CCR2): >2380
- IC50 (CXCR2): > 10 µM
- inhibition at 10 µM (CXCR2; read-out: inhibition (%) CXCR2): 12%
- selective index CXCR2 (CXCR2): >2380
Compound: c1cc(CNCCCNC2CCCCC2)cc(CNc2nc(N3CCNCC3)nc3[nH]cnc23)c1 [Compound 25, N-Cyclohexyl-N′-{3-[(2-piperazin-1-yl-9H-purin-6-ylamino)-methyl]-benzyl}-propane-1,3-diamine]
- CC50 at 72 h (Cytotoxicity assay [2]): > 50 µM
- selectivity ratio at 72 h (Cytotoxicity assay [2]): > 83300
- CC50 at 72 h (Cytotoxicity assay [3]): > 50 µM
- selectivity ratio at 72 h (Cytotoxicity assay [3]): > 83300

Reference: paper PMC4823997 (Journal of medicinal chemistry, 2015)
